{"source": "paper PMC5349447", "about": "“Applying a high-throughput fluorescence polarization assay for the discovery of chemical probes blocking La:RNA interactions in vitro and in cells” (PLoS ONE, 2017)", "key": {"[1]": {"test_system": "T1, La:TOPf complex", "T1 construct": "His; made in house; host or cells: E. coli BL21", "experiment": "EMSA, compound competition, La-WT:TOPf", "type": "binding, human", "settings": "TOPf 50 nM", "method": "12% native TBE polyacrylamide gels were prepared in a Mini-PROTEAN Tetra Handcast System (BioRad). The gel was pre-run for 30 min at 140 V in 1x TBE buffer (45 mM Tris/HCl pH 8.5, 45 mM boric acid, 1 mM EDTA). To prepare the RNA-mix, fluorescence labeled RNA oligoribonucleotides (oligos) were diluted in fluorescence polarization buffer (20 mM Tris/HCl (pH 7.4), 150 mM NaCl, 3.0 mM MgCl2, 0.5 mM EDTA, 0.05% (v/v) IGEPAL), mixed for 10 min at 80°C, and then immediately placed on ice for at least 5 min. All RNA oligos were used at a final concentration of 50 nM. Recombinant La protein was diluted in D-buffer (20 mM Tris/ HCl (pH 7.4), 150mM NaCl, 3mM MgCl2, 0.5mM EDTA, 5% glycerol) and placed on ice until use.\nLa titration was performed at final concentrations of 20, 40, 60, 100, 200, 300, 400, 500, 600 nM La. Three different La concentrations were used for compound studies: 60 nM for fD1 RNA, 200 nM for fPolyU RNA, and 150 nM for TOPf RNA studies. Two μl of diluted compound (diluted in 100% DMSO) or 2 μl 100% DMSO (control reaction) was combined with 8 μl La-mix in a 96-well plate. 10 μl RNA-mix was added, mixed for 2 min, and incubated for 10 min at RT in the dark. […] The La-RNA complex (La-RNP) formation was quantified using the ImageQuant TL software. […]"}, "[2]": {"test_system": "T2, gfp-tagged La-WT association with cellular mRNAs", "T2 construct": "full length La (La wildtype, La-WT); expressed in transfected cells", "experiment": "RNA immunoprecipitation (RIP) with RT-qPCR in HEK293 expressing gfp-tagged La", "type": "cell-based, human", "settings": "150 μM, HEK293 gfpLa", "method": "RIP experiments were performed with HEK293 stably expressing gfp (green fluorescent protein)-tagged La wiltype (La-WT) protein as described recently. The compound C2:01 was dissolved in 100% DMSO to a concentration of 100 mM. Subsequently, the compound was diluted in media to 10 mM (10% DMSO) and 1 mM (1% DMSO). The 1 mM stock was diluted 6.7-fold in culture media to reach a final concentration of 150 μM (0.15% DMSO). Cells were washed with ice-cold 1x PBS, and lysed by incubating with lysis buffer (20 mM Tris-HCl, (pH 7.4), 150 mM NaCl, 1% IGEPAL CA-630, 10% glycerol, 1 mM EDTA, 50mM NaF, and 1 mM DTT, supplemented with RNase inhibitors and protease inhibitors) on tube rotator for 15 min at 4°C. The cell lysate was sonicated (3 sec for 10 times at power 3, Sonic Dismembrator Model 100) and cleared by centrifugation at 14,000 g at 4°C for 20 min. The cleared lysate was incubated with anti-gfp magnetic beads (MBL International) on the orbital rotor at 4°C overnight. The beads were washed four times with wash buffer I (50 mM Tris-HCl (pH 7.4), 300 mM NaCl, 0.05% IGEPAL CA-630, 20 mM EDTA, 1 mM DTT, and 1 mM MgCl2) and three times with wash buffer II (50 mM Tris-HCl (pH 7.4), 300 mM NaCl, 0.05% IGEPAL CA-630, 20 mM EDTA, 1 mM DTT, 1 mM MgCl2 and 1 M urea)[29].\nFor preparation of the RNA, the beads were resuspended in wash buffer II and RNA was extracted by applying the Phenol-Chloroform-Isoamyl alcohol method. […] The RNA pellet was dissolved in RNase-DNase-free H2O and quantitated by NanoDrop spectrophotometer and subjected to RT-qPCR analysis. By RT-qPCR the La-specific RIP-RNA pellets (gfp-tagged La) were tested for the presence of Bcl2, CCND1, L37, L22 and S6 mRNA and none of those were detected in the control RIP experiments (gfp alone). The enrichment was calculated by establishing standard curves for specific mRNAs using the RT^2 qPCR Primer Assays (Qiagen): Bcl2 (PPH00079B), CCND1 (PPH00128F), L37 (QT00014105), L22 (QT00079982), S6 (QT02505328) as described recently. […]"}, "[3]": {"test_system": "HEK293 cells", "experiment": "HEK293 cell proliferation and viability", "type": "cell-based, human", "settings": "data not shown"}}, "data": [{"compound": "O=C(O)c1ccccc1C(=O)c1ccc(O)cc1O", "note": "[C2, 2-(2,4-dihydroxybenzoyl)benzoic acid]", "values": [{"measurement": "impairment of La:TOPf complex formation (EMSA), in words", "setting": "[1]; La-WT 200 nM", "result": "only at the highest concentration tested"}]}, {"compound": "CCOC(=O)c1ccc2c(c1)C1C=CCC1C(C(=O)O)N2", "note": "(stereo not shown) [C6, 8-(ethoxycarbonyl)-3a,4,5,9b-tetrahydro-3Hcyclopenta[c]quinoline-4-carboxylic acid]", "values": [{"measurement": "concentration blocking La-WT:TOPf complex formation (EMSA)", "setting": "[1]; La-WT 150 nM", "result": 10, "unit": "µM"}]}, {"compound": "Cc1ccc(C(=O)c2ccccc2C(=O)O)c(O)c1", "note": "[C2.01, 2-(2-hydroxy-4-methylbenzoyl)benzoic acid]", "values": [{"measurement": "binding of La to Bcl2 mRNA in cells (RIP)", "setting": "[2]", "result": "selectively impaired"}, {"measurement": "binding of La to CCND1 mRNA in cells (RIP)", "setting": "[2]", "result": "selectively impaired"}, {"measurement": "binding of La to TOP mRNAs encoding RPL37, RPL5 and RPSK6 in cells (RIP)", "setting": "[2]", "result": "no effect"}, {"measurement": "cell proliferation and viability of HEK293 cells", "setting": "[3]; 150 μM or below", "result": "not"}, {"measurement": "cell proliferation and viability of HEK293 cells", "setting": "[3]; 300 or 450 μM", "result": "impaired"}]}]}
